Molecular target: Human factor D (Homo sapiens (Human), UniProt P00746)
Assay: Human Factor D Assay
Assay type: biochemical
Conditions: human factor D 80 nM, substrate Z-L-Lys-SBzl, DTNB, OD405
Outline: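 Serum-purified human factor D (80 nM final) preincubated with compound 5 min at room temperature in 50 mM Tris, 1M NaCl, pH 7.5. Z-L-Lys-SBzl and DTNB added at 10 μM final each; OD405 followed kinetically over 30 min. IC50 by non-linear regression of percent inhibition.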

Human factor D, sequence (P00746 26-253): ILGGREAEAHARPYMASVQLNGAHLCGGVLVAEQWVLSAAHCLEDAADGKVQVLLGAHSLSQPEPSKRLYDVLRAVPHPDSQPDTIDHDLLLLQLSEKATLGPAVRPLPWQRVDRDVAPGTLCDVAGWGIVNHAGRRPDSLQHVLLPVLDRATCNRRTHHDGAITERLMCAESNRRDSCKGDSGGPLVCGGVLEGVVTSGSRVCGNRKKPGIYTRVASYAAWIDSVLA

`CC(=O)c1cn(CC(=O)N2C[C@H](F)C[C@H]2C(=O)NCc2cc(P(=O)(O)O)cc(Cl)c2F)c2ccccc12` [Compound 63, 3-(((2S,4R)-1-(2-(3-acetyl-1H-indol-1-yl)acetyl)-4-fluoropyrrolidine-2-carboxamido)methyl)-5-chloro-4-fluorophenylphosphonic acid] and `NC(=O)c1cn(CC(=O)N2C[C@H](F)C[C@H]2C(=O)Nc2cccc(-c3ccccc3Cl)c2F)c2sccc12` [Compound 98, 6-(2-((2S,4R)-2-(2′-chloro-2-fluorobiphenyl-3-ylcarbamoyl)-4-fluoropyrrolidin-1-yl)-2-oxoethyl)-6H-thieno[2,3-b]pyrrole-4-carboxamide] cannot be ordered by IC50: less than 1 µM for the first, less than 1 µM for the second.

`CC(=O)n1cc(NC(=O)[C@H]2CCCN2C(=O)Nc2cccc(OC(F)(F)F)c2F)c2ccccc21` [Compound 16, (R)-N2-(1-acetyl-1H-indol-3-yl)-N1-(2-fluoro-3-(trifluoromethoxy)phenyl)pyrrolidine-1,2-dicarboxamide] and `CC(=O)n1cc(NC(=O)[C@@H]2C[C@H](F)CN2C(=O)NCc2ccccc2)c2ccccc21` [Compound 5, (2S,4S)-N2-(1-acetyl-1H-indol-3-yl)-N1-benzyl-4-fluoropyrrolidine-1,2-dicarboxamide] cannot be ordered by IC50: greater than 10 µM for the first, greater than 10 µM for the second.

Compared with `N[C@@H](Cc1c[nH]c2ccccc12)C(=O)N1C[C@H](F)C[C@H]1C(=O)NCc1cccc(Cl)c1F` [Compound 39, (2S,4R)-1-((S)-2-amino-3-(1H-indol-3-yl)propanoyl)-N-(3-chloro-2-fluorobenzyl)-4-fluoropyrrolidine-2-carboxamide], `Cc1cc2c(s1)c(C(N)=O)nn2CC(=O)N1C[C@H](F)C[C@H]1C(=O)Nc1cccc(-c2ccccc2Cl)c1F` [Compound 113, 1-(2-((2S,4R)-2-(2′-chloro-2-fluorobiphenyl-3-ylcarbamoyl)-4-fluoropyrrolidin-1-yl)-2-oxoethyl)-5-methyl-1H-thieno[3,2-c]pyrazole-3-carboxamide] is lower in IC50: greater than 10 µM for the first, less than 1 µM for the second. The second is the more potent here.

`CC(=O)c1cn(CC(=O)N2C[C@H](F)C[C@H]2C(=O)Nc2cccc(-c3ccccc3Cl)c2F)c2c(-c3cn[nH]c3)cccc12` [Compound 114, (2S,4R)-1-(2-(3-acetyl-7-(1H-pyrazol-4-yl)-1H-indol-1-yl)acetyl)-N-(2′-chloro-2-fluorobiphenyl-3-yl)-4-fluoropyrrolidine-2-carboxamide] and `NC(=O)c1nn(CC(=O)N2C[C@H](F)C[C@H]2C(=O)Nc2cccc(-c3cc(F)c(F)cc3Cl)c2F)c2ccccc12` [Compound 80, 1-(2-((2S,4R)-2-(2′-chloro-2,4′,5′-trifluorobiphenyl-3-ylcarbamoyl)-4-fluoropyrrolidin-1-yl)-2-oxoethyl)-1H-indazole-3-carboxamide] cannot be ordered by IC50: less than 1 µM for the first, less than 1 µM for the second.

`NC(=O)c1nn(CC(=O)N2[C@@H]3C[C@@H]3C[C@H]2C(=O)NCc2cccc(Cl)c2F)c2ccsc12` [Compound 107, 1-(2-((1R,3S,5R)-3-(3-chloro-2-fluorobenzylcarbamoyl)-2-azabicyclo[3.1.0]hexan-2-yl)-2-oxoethyl)-1H-thieno[3,2-c]pyrazole-3-carboxamide] showed an IC50 of less than 1 µM.

Source: patent US9758537B2 (Achillion Pharmaceuticals, Inc., priority 2014, dated 2017)
